Patent US20250250252A1, “PIPERIDINYLBENZONITRILE DERIVATIVES AS INHIBITORS OF GLUTAMINYL-PEPTIDE CYCLOTRANSFERASE AND GLUTAMINYL-PEPTIDE CYCLOTRANSFERASE LIKE PROTEIN” (Boehringer Ingelheim International GmbH, priority 2024, published 2025)
Like-named read-outs stand apart in the source and are kept apart here.

Legend:
CACO-2 cells = assay: Assay C: Permeability in CACO-2 cells; assay type: in vitro ADME; settings: pair comparison without/with 4-fluoropiperidyl
Protocol: (§1) Caco-2 cells (1-2×10^5 cells/1 cm^2 area) are seeded on filter inserts (Costar transwell polycarbonate or PET filters, 0.4 μm pore size) and cultured (DMEM) for 10 to 25 days. Compounds are dissolved in appropriate solvent (like DMSO, 1-20 mM stock solutions). […] The transport solution (TL) is applied to the apical or basolateral donor side for measuring A-B or B-A permeability (3 filter replicates), respectively. Samples are collected at the start and end of experiment from the donor and at various time intervals for up to 2 hours also from the receiver side for concentration measurement by HPLC-MS/MS or scintillation counting. Sampled receiver volumes are replaced with fresh receiver solution.
(§2) Efflux ratio (ER)=permeability B-A/permeability A-B

[1] = Assay C: Permeability in CACO-2 cells; assay type: in vitro ADME; settings: human; for efflux ratio: Caco-2, pH 7.2
Protocol: as §1, §2

CYP3A4 mRNA = assay: Assay D: CYP induction screening assay in primary human hepatocytes; assay type: in vitro ADME; settings: 48 h
Protocol: Cryopreserved plateable human hepatocytes (single donor, BioIVT) were thawed and plated in Collagen-I coated 96-well-plates at a cell density of 0.07 million cells per well.
After a 6 h attachment period, the seeding medium was replaced by serum-free William's medium E supplemented with Matrigel (0.25 mg/ml) and allowed to recover overnight. 24 h post-seeding, serum-free Williams E medium containing the test compound at a final concentration of 10 μM and a final DMSO content of 0.1% and 0.1% DMSO (solvents treated control), respectively, was added to predefined wells. Exposure solutions were renewed after 24 h.
After 48 h of treatment in total, the effect of the test compounds on CYP3A4 mRNA expression was assessed using the QuantiGene Plex Gene Expression Assay. Hepatocytes were lysed and total RNA was extracted using the QuantiGene Sample Processing Kit according to the instructions of the manufacturer.
mRNA quantification was conducted using a customized QuantiGene Plex Panel to analyse CYP3A4 and the housekeeper genes RPL32, EIF4E2 and GUSB according to the instructions of the manufacturer and measured on a Luminex™ instrument. Signal was reported as median fluorescence intensity (MFI), which is proportional to the number of target RNA molecules present in the sample.
For calculation of CYP3A4 mRNA induction, the signal for CYP3A4 was normalized against the geometric mean of the signal obtained for the housekeeper genes for hepatocytes exposed to test compounds in relation to solvent-treated samples according to the following equation:
n-fold induction=(MFI CYP3A4 (treated)/Xgeo MFI (RPL32,EIF4E2,GUSB))/(MFI CYP3A4 (solvent control)/Xgeo MFI (RPL32,EIF4E2,GUSB))

murine hepatocytes = assay: Assay E: Stability in murine hepatocytes; assay type: in vitro ADME, mouse; settings: 1 μM
Protocol: The metabolic degradation of the test compound is assayed in a murine hepatocyte suspension.
Murine hepatocytes (typically cryopreserved) are incubated in an appropriate buffer system (e.g. Dulbecco's modified eagle medium plus 3.5 μg glucagon/500 mL, 2.5 mg insulin/500 mL and 3.75 mg/500 mL hydrocortison) containing 5% species serum.
Following a (typically) 30 min preincubation in an incubator (37° C., 10% CO2) 5 μl of test compound solution (80 μM; from 2 mM in DMSO stock solution diluted 1:25 with medium) are added into 395 μl hepatocyte suspension (cell density in the range 0.25-5 Mio cells/mL, typically 1 Mio cells/mL; final concentration of test compound 1 μM, final DMSO concentration 0.05%).
The cells are incubated for six hours (incubator, orbital shaker) and samples (2 μl) are taken at 0, 0.5, 1, 2, 4 and 6 hours. Samples are transferred into acetonitrile and pelleted by centrifugation (5 min). The supernatant is transferred to a new 96-deepwell plate, evaporated under nitrogen and resuspended.
CLint is calculated as follows CL_[…]=Dose/AUC=(C0/CD)/(AUD+clast/k)×1000/60. C0: initial concentration in the incubation [μM], CD: cell density of vital cells [10e6cells/mL], AUD: area under the data [μM×h], clast: concentration of last data point [μM], k: slope of the regression line for parent decline [h−1].
The calculated in vitro hepatic intrinsic clearance can be scaled up to the intrinsic in vivo hepatic Clearance and used to predict hepatic in vivo blood clearance (CL) by the use of a liver model (well stirred model).
CL_[…]_INVIVO[ml/min/kg]=(CL_[…][μL/min/10e6cells]×hepatocellularity[10e6cells/g liver]×liver factor[g/kg bodyweight])/1000
CL[ml/min/kg]=CL_[…]_INVIVO[ml/min/kg]×hepatic blood flow[ml/min/kg]/(CL_[…]_INVIVO[ml/min/kg]+hepatic blood flow[ml/min/kg])
Hepatocellularity,mouse:120×10e6cells/g liver
Liver factor,mouse:55 g/kg bodyweight
Blood flow,mouse:90 ml/(min×kg)

[2] = test system: SIRPα signalling induced by Raji cells; assay: Assay B: SIRPα signalling assay using Raji cells; assay type: cell-based; settings: Homo sapiens, read-out: Inhibition of SIRPα signalling induced by Raji cells: IC50
Protocol: Bioassay reagent 1 of the PathHunter Bioassay detection kit (DiscoverX 93-0001) was added to each well of the plate using a multichannel pipette followed by a 15 min incubation at room temperature. Afterwards bioassay reagent 2 was added followed by 60 min incubation at room temperature (incubation in the dark).
(§3) The analysis of the data was performed using the luminescence signal generated by betagalactosidase in the PathHunter reporter cell line. The luminescence measurement was done using a Pherastar Multi-Mode Reader.

[3] = test system: SIRPα signalling induced by A549 cells; assay: Assay B: SIRPα signalling assay using A549 cells; assay type: cell-based; settings: Homo sapiens, read-out: Inhibition of SIRPα signalling induced by A549 cells: IC50
Protocol: Two cell types are independently used: the Raji cell line (lymphoblast-like human cell line derived from B lymphocytes from a Burkitt's lymphoma patient in 1963) and A549 cells (adenocarcinomic human alveolar basal epithelial cells).
Test compounds were dissolved in 100% DMSO and serially diluted into a white 384-well microtiter cell culture plate (PerkinElmer #60076780 in case of Raji assay; PDL-coated plates Greiner #781945 in case of A549 assay). 5000 Raji cells (ATCC #CC86) or 5000 A549 cells (ATCC #CCL-185) in Assay Complete Cell Plating reagent 30 (DiscoverX 93-0563R30B) were added per well. The assay plate was incubated for 48 h at 37° C., 95% humidity and 5% CO2. 15000 reporter cells (Jurkat PathHunter SIRPαV1, DiscoverX #93-1135C19) were added to each well, and the plate was incubated for 5 h at 37° C., 95% humidity and 5% CO2. Bioassay reagent 1 of the PathHunter Bioassay detection kit (DiscoverX 93-0001) was added to each well of the plate using a multichannel pipette followed by a 15 min incubation at room temperature. Afterwards bioassay reagent 2 was added followed by 60 min incubation at room temperature (incubation in the dark).
as §3, with “Reader. Dose-response curves & IC50 data were calculated with 4-parameter sigmoidal dose response formula.” for “Reader.”

[4] = pair comparison without/with 4-fluoropiperidyl, read-out: Efflux ratio (BA/AB)

Row | CACO2 Perm. (CACO-2 cells) | efflux ratio [1, 4] | Compound | other results
1 | 9.0 10^−6 cm/sec |  | Cn1cnnc1C1CCN(c2c(C#N)cc(C(F)(F)F)cc2-c2ccc(F)nc2)CC1 [Example 70 in WO 2024/020517] | 
2 | 15.0 10^−6 cm/sec |  | Cn1cnnc1C1(F)CCN(c2c(C#N)cccc2-c2ccnnc2)CC1 [Example 52 in EP 22216126.7] | 
3 | 0.5 10^−6 cm/sec |  | Cn1cnnc1C1CCN(c2c(C#N)cccc2-c2cnc3nn(C(C)(C)C)cc3c2)CC1 [Example 50 in EP 22216126.7] | 
4 | 23.0 10^−6 cm/sec | 3.3 | Cn1cnnc1C1CCN(c2c(C#N)cc(Cl)nc2-c2ccc(F)nc2)CC1 [Example 18 in WO 2024/020517] | 
5 | 24.0 10^−6 cm/sec |  | Cn1cnnc1C1CCN(c2c(C#N)cc(F)cc2-c2ccc(F)nc2)CC1 [Example 130 in WO 2024/020517] | 
6 | 4.8 10^−6 cm/sec |  | Cn1cnnc1C1CCN(c2c(C#N)ccnc2-c2ccc(F)nc2)CC1 [Example 133 in WO 2024/020517] | 
7 | 66.0 10^−6 cm/sec | 1 | Cn1cnnc1C1(F)CCN(c2c(C#N)cc(Cl)nc2-c2ccc(F)nc2)CC1 [Example 18 in EP 23161417.3] | 
8 | 18.0 10^−6 cm/sec |  | Cn1cnnc1C1(F)CCN(c2c(C#N)cc(Cl)cc2-c2cnc3nn(C(C)(C)C)cc3c2)CC1 [Example 19 in EP 23161417.3] | 
9 | 50.0 10^−6 cm/sec |  | Cn1cnnc1C1(F)CCN(c2c(C#N)cccc2-c2ccc(F)nc2)CC1 [Example 56 in EP 23161417.3] | 
10 | 4.9 10^−6 cm/sec |  | Cn1cnnc1C1(F)CCN(c2c(C#N)cccc2-c2cnc3nn(C(C)(C)C)cc3c2)CC1 [Example 62 in EP 22216126.7] | 
11 | 1.7 10^−6 cm/sec |  | Cn1cnnc1C1(F)CCN(c2c(-c3cnc4nn(C(C)(C)C)cc4c3)ccc(C(F)(F)F)c2C#N)CC1 [Example 30 in EP 23161417.3] | 
12 | 1.8 10^−6 cm/sec |  | Cn1cnnc1C1CCN(c2c(-c3ccc(F)nc3)ccnc2C#N)CC1 [Example 132 in WO 2024/020517] | 
13 | 2.5 10^−6 cm/sec |  | Cn1cnnc1C1CCN(c2c(C#N)cc(Cl)cc2-c2cnc3nn(C(C)(C)C)cc3c2)CC1 [Example 17 in EP 23161417.3] | 
14 | 0.2 10^−6 cm/sec |  | Cn1cnnc1C1CCN(c2c(-c3cnc4nn(C(C)(C)C)cc4c3)ccc(C(F)(F)F)c2C#N)CC1 [Example 32 in EP 23161417.3] | 

More lines, now with the values behind:

Row | Compound | CACO2 Perm. (CACO-2 cells) | efflux ratio [1, 4] | other results
15 | Cn1cnnc1C1CCN(c2c(C#N)cc(C(F)(F)F)nc2-c2cnc3nn(C(C)(C)C)c(Cl)c3c2)CC1 | 1.0 10^−6 cm/sec | 36.4 | 
16 | Cn1cnnc1C1CCN(c2c(C#N)cccc2-c2ccnnc2)CC1 [Example 11 in WO 2024/020517] | 0.3 10^−6 cm/sec | 28.1 | 
17 | Cn1cnnc1C1(F)CCN(c2c(C#N)cc(C(F)(F)F)nc2-c2cnc3nn(C(C)(C)C)c(Cl)c3c2)CC1 [Example 3 in EP 23189886.7] | 47.0 10^−6 cm/sec | 1 | 
18 | Cn1cnnc1C1CCN(c2c(C#N)cc(F)cc2-c2cnc3nn(C(C)(C)C)c(C(F)(F)F)c3c2)CC1 | 17.0 10^−6 cm/sec | 5.7 | 
19 | Cn1cncc1C1CCN(c2c(C#N)cccc2-c2ccc(F)nc2)CC1 [QP5038, reference compound] |  |  | n-fold induction of CYP3A4 at 10 μM (CYP3A4 mRNA): 58.5 n-fold; Mouse Hepatocyte Stability QH (murine hepatocytes): 97%; IC50 [2]: 21 nM; efflux ratio ([1]; Assay C, permeability B-A/permeability A-B, read-out: Efflux Ratio): 0.8; Papp A→B ([1]; pH 7.2, Assay C, CACO-2 cells): 61 ×10⁻⁶ cm/s; IC50 [3]: 6 nM
20 | Cn1cnnc1C1(F)CCN(c2c(-c3ccc(F)nc3)ccnc2C#N)CC1 [Example 10 in EP 22188580.9] | 11.0 10^−6 cm/sec |  | 
21 | Cn1cnnc1C1(F)CCN(c2c(C#N)cc(F)cc2-c2cnc3nn(C(C)(C)C)c(C(F)(F)F)c3c2)CC1 | 51.0 10^−6 cm/sec | 0.8 | 
22 | Cn1cnnc1C1(F)CCN(c2c(C#N)ccnc2-c2ccc(F)nc2)CC1 [Example 1 in EP 22188580.9] | 28.0 10^−6 cm/sec |  | 
23 | Cn1cnnc1C1CCN(c2c(C#N)cc(C(F)(F)F)nc2-c2cnc3nn(C(C)(C)C)c(C(F)(F)F)c3c2)CC1 [Example 13 in EP 23189886.7] | 3.7 10^−6 cm/sec | 5.7 | 
24 | Cn1cnnc1C1(F)CCN(c2c(C#N)cc(F)cc2-c2ccc(F)nc2)CC1 [Example 6 in EP 23161417.3] | 44.0 10^−6 cm/sec |  | 
25 | Cn1cnnc1C1(F)CCN(c2c(C#N)cc(C(F)(F)F)cc2-c2ccc(F)nc2)CC1 [Example 4 in EP 23161417.3] | 40.5 10^−6 cm/sec |  | 
26 | Cn1cnnc1C1(F)CCN(c2c(C#N)cc(C(F)(F)F)nc2-c2cnc3nn(C(C)(C)C)c(C(F)(F)F)c3c2)CC1 [Example 4 in EP 23189886.7] | 99.5 10^−6 cm/sec | 0.6 | 
